The values below come from publication PMC7467771, “Lipophilic Arginine Esters: The Gateway to Preservatives without Side Effects” (Molecular Pharmaceutics, 2020).

As usually defined, the logP is a log measure of how a compound divides between an organic and an aqueous phase. For orientation: cell viability means the share of living cells, or the viability signal relative to a control. Read a high cell viability as better survival.

Like-named read-outs stand apart in the source and are kept apart here.

Data set [1] relates to red blood cells. The following applies: cited from earlier work.
The test system of data set [2] is E. coli. Particulars: against E. coli; cited from earlier work.
Data set [3] is described as follows: octanol/water partition coefficient (log P) by TNBS assay. The following applies: octanol/water mixture 1:1 v/v; mean, n = 3. It is filed as physicochemical. The protocol:
Log P of Arg and both Arg-esters were determined using an already described method.[15] Each compound was dissolved in an octanol/water mixture (1:1, v/v). Afterward, octanol and water phases were separated by a high-speed mini centrifuge (Fisher Scientific, Illinois USA), and the concentration of each compound in each phase was determined by the TNBS assay. For this, a 50 μL volume from each phase was diluted 10 times with 0.1 M sodium bicarbonate (pH 8.5) containing 40% (v/v) isopropyl alcohol. After dilution, 250 μL of the TNBS reagent (0.01%, v/v) prepared in 0.1 M sodium bicarbonate (pH 8.5) was added to each sample that was incubated at 37 °C. After 2 h, the reaction was stopped by adding 250 μL of 10% (m/v) SDS and 125 μL of 1 M HCl. The absorbance of each sample was measured at 335 nm using a Spark multifunctional microplate reader (Tecan Austria, GmbH). The logarithm of the octanol/water absorbance ratio was expressed as log P for each sample.

Data set [4] has as its system Caco-2 cells. Description: resazurin assay, cytotoxicity. In kind it is cell-based. Particulars: Caco-2, 4 h incubation; for EC50 (concentration causing 50% cell death): calculated from cell viability data. The procedure:
The resazurin assay was used to determine the cytotoxic potential of Arg-esters according to a previous method with some minor modifications.[15] Caco-2 cells were seeded in a 24-well cell culture plate at 25 000 cells per well density and kept in an incubator at 37 °C under a 95% relative humidity environment and 5% CO2 level. Minimum essential medium (MEM) supplemented with streptomycin (0.1 mg […]), penicillin (100 units […]), and fetal calf serum (FCS) 10% (v/v) was used for growing cells. During a growth period of 14 days, the medium was replaced every other day. On the day of the experiment, test solutions of Arg-OL and Arg-DT esters were prepared in 25 mM HBS (HEPES buffered saline) buffer (pH 7.4) in the concentration range of 1000–3000 μg mL^–1. For comparison, the same concentrations of BAC and cetrimide were also prepared in HBS. HBS without any addition was used as a positive control, and Triton X-100 (2%, v/v) in HBS was used as a negative control. The growth medium from all wells of the cell culture plate was removed, and cells were washed three times with HBS preheated at 37 °C. Each test solution and controls were then added to individual wells in a volume of 500 μL, and the cell culture plate was incubated under the same conditions. After 4 h, the solution from each well was removed, and cells were washed with HBS (pH 7.4) preheated at 37 °C. Then, 500 μL of resazurin (2.2 mM) per well was added and incubated for further 3 h under the same conditions. Afterward, the fluorescence of the supernatant from each well was measured at the excitation wavelength of 540 nm and an emission wavelength of 590 nm. Cell viability was calculated by the equation: [drawing 4]

The test system of data set [5] is Escherichia coli ATCC 25922. Description: MIC testing by the microdilution method. It is filed as cell-based. Particulars: microdilution, overnight 37 °C, tested 5000 to 5 μg mL^–1. The protocol:
(§1) Following bacterial strains were used for antimicrobial susceptibility testing: Escherichia coli ATCC 25922, Staphylococcus aureus ATCC 29213, Bacillus subtilis ATCC 6633, and Enterococcus faecalis ATCC 19433, which were obtained from the American Type Culture Collection (ATCC, Virginia, USA).
(§2) The MIC is the lowest concentration of a substance that leads to a clearly visible growth inhibition after a defined incubation period. To evaluate the MIC of Arg-DT, Arg-OL, BAC, and cetrimide, a microdilution test was performed according to the guidelines of the Clinical and Laboratory Standards Institute.[19] First of all, similarly, as for the disk diffusion test, microorganisms were dissolved in saline and set to a 0.5 McFarland standard turbidity. This corresponds to a bacterial concentration of 1.5 × 10^8 colony-forming units per milliliter (CFU mL^–1); 50 μL of the bacterial suspension was added to 10 mL of Mueller Hinton Bouillon (MHB, Becton Dickinson, New Jersey, USA). The stock solutions were prepared as follows: the test compounds Arg-OL, Arg-DT, BAC, and cetrimide were dissolved in water with 10% (v/v) DMSO at a concentration of 10 mg mL^–1. The obtained solutions were used to prepare serial dilutions. The tested concentration for each substance ranged from 5000 to 5 μg mL^–1. Each test sample was added to a flat-bottomed tissue plate well in the volume of 75 μL. The first well of the tissue plate containing 75 μL of water with 10% (v/v) DMSO instead of any test sample was used as a positive control. Finally, 75 μL of the bacterial suspension was added to each well, and the plates were incubated at 37 °C overnight.
(§3) Before measuring the optical density (OD), plates were shaken for 15 min at 250 rpm. The OD was measured using the Bio-Rad 680 microplate reader (Hercules, California, USA) at a wavelength of 490 nm. Inhibition of bacterial growth was defined as a reduction of growth for at least 5 log units. Experiments were performed three times under analogous conditions for each bacterial strain and each tested sample.
(In general: Dilution methods test growth across graded concentrations, often in twofold steps.)

For data set [6], the system named is Enterococcus faecalis ATCC 19433. The data set is described as follows: MIC testing by the microdilution method. In kind it is cell-based. Particulars: microdilution, overnight 37 °C, tested 5000 to 5 μg mL^–1. The protocol: as §1, §2, §3
Data set [7] deals with Bacillus subtilis ATCC 6633. Description: MIC testing by the microdilution method. The following applies: microdilution, overnight 37 °C, tested 5000 to 5 μg mL^–1. It is filed as cell-based. The protocol: as §1, §2, §3
Data set [8] deals with Staphylococcus aureus ATCC 29213. The data set is described as follows: MIC testing by the microdilution method. Particulars: microdilution, overnight 37 °C, tested 5000 to 5 μg mL^–1. It is filed as cell-based. The procedure:
as §1, §2, §3

In data set [9] the test system is Escherichia coli ATCC 25922. The data set is described as follows: disk diffusion method. In kind it is cell-based. Particulars: test solution 10 mg mL^–1, disks about 6 mm, overnight 37 °C. The protocol: as §1
(§4) The disk diffusion method was used for the initial assessment of the antimicrobial activity of Arg-esters. Mueller Hinton agar (MHA, Biomerieux) medium was prepared according to the manufacturer protocol and poured into Petri dishes. All testing microorganisms were dissolved in saline and set to a 0.5 McFarland standard turbidity. This corresponds to a bacterial concentration of 1.5 × 10^8 colony-forming units per milliliter (CFU mL^–1). The bacterial suspension was then swabbed over solidified MHA Petri dishes ensuring homogeneous distribution. The test solutions of Arg-OL, Arg-DT, BAC, and cetrimide were prepared in water with 10% (v/v) DMSO at a concentration of 10 mg mL^–1. Water with 10% (v/v) DMSO was used as a negative control. The diffusion disks of about 6 mm in diameter were prepared from Whatman filter paper. After immersing disks in the above-prepared test solutions, they were placed on MHA plates already swabbed with different bacteria. After overnight incubation of Petri dishes at 37 °C, clear zones of bacterial growth inhibition around disks were measured.

In data set [10] the test system is Enterococcus faecalis ATCC 19433. Description: disk diffusion method. It is filed as cell-based. Particulars: test solution 10 mg mL^–1, disks about 6 mm, overnight 37 °C. The procedure: as §1, §4
(A growth-free zone around the sample is the usual read-out of agar diffusion tests.)

In data set [11] the test system is Bacillus subtilis ATCC 6633. Description: disk diffusion method. It is filed as cell-based. Particulars: test solution 10 mg mL^–1, disks about 6 mm, overnight 37 °C. The protocol:
as §1, §4

The test system of data set [12] is Staphylococcus aureus ATCC 29213. Description: disk diffusion method. It is filed as cell-based. Particulars: test solution 10 mg mL^–1, disks about 6 mm, overnight 37 °C. The procedure: as §1, §4
Data set [13] concerns red blood cells (RBC). Description: hemolysis study. It is filed as cell-based. Particulars: human RBC, 1 h, 37 °C, PBS pH 7.4. The protocol: The hemolysis test was performed with red blood cells (RBC) to evaluate the potential toxic effect of Arg-surfactants on human cells.[18] Human RBC concentrate was kindly donated by the Tirol Kliniken GmbH, Innsbruck, Austria, and stored at 4 °C until use. RBC concentrate (0.556 mL) was freshly diluted by adding sterile Dulbecco’s PBS (pH 7.4) (1.944 mL) before the test to obtain an equivalent amount of whole blood (EWB). Then EWB was 50 times diluted in sterile Dulbecco’s PBS (pH 7.4). The diluted blood on visual inspection was turbid and settled down upon leaving undisturbed, indicating no cell lysis. Arg-surfactant stock solutions were prepared in the concentration range of 10–5000 μg mL^–1 in PBS. For comparison, BAC and cetrimide solutions were prepared in the same concentration range in PBS. For the assay, 10 μL of each test sample was mixed with 190 μL of diluted blood, resulting in the testing final concentrations of 0.5–250 μg mL^–1. For the positive control, 10 μL of 20% v/v Triton X-100 and, for the negative control, 10 μL of sterile Dulbecco’s PBS were mixed with 190 μL of diluted blood. All samples and controls were incubated for 1 h at 37 °C with shaking. After centrifugation at 10 000 rpm for 60 s, aliquots of 100 μL were withdrawn from the supernatants and transferred to a 96-well plate. Absorbance was measured at a wavelength of 420 nm. The extent of hemolysis as a percentage was determined by using the following equation: [drawing 6]

On to `CCCCCC(=O)N[C@@H](CCCNC(=N)N)C(=O)OC` [CAM, caproyl arginine methyl ester], for which the HC50 in data set [1] (reported in the literature) is given as 38.5 μg mL^–1.
Turning to `CCCCCCCCCCCC(=O)N[C@@H](CCCNC(=N)N)C(=O)OC` [LAM, lauroyl arginine methyl ester], the MIC in data set [2] is 128 μg mL^–1. Moreover, the HC50 in [1] is on record as 20.8 μg mL^–1.
`CCCCCCCC(=O)N[C@@H](CCCNC(=N)N)C(=O)OCC` [Nα-octanoyl arginine ethyl ester]: in data set [2], the “MIC (not effective at the highest tested concentration)” value is reported as over 256 μg mL^–1.
Turning to `N=C(N)NCCC[C@H](N)C(=O)O` [arginine, L-Arginine], the logP in data set [3] was -1.9.
In the case of “benzalkonium chloride [BAC, reference compound]”, in [4], the “EC50 (concentration causing 50% cell death)” value is 20 μg mL^–1. Moreover, the minimum inhibitory concentration in [5] worked out at 10 μg mL^–1; in data set [6], 5 μg mL^–1; in data set [7] it was 5 μg mL^–1; in data set [8], 5 μg mL^–1. Also, the zones of inhibition in data set [9] came out at 19 mm; in data set [10], 20 mm; in [11], 23 mm; in [12] it was 21 mm.
In turn, cetrimide [reference compound] had a cell viability in data set [4] (all tested concentrations (1000–3000 μg mL^–1)) of under 10%. Besides, the “EC50 (concentration causing 50% cell death)” value in data set [4] was 20 μg mL^–1. Further, the minimum inhibitory concentration in data set [5] was 20 μg mL^–1; in [6] it was 5 μg mL^–1; in data set [7] it was 5 μg mL^–1; in [8] it was 5 μg mL^–1. For the same compound, the “HC50 (concentration causing lysis of 50% red blood cells)” value in [13] amounted to 23 μg mL^–1. Also, the zones of inhibition is reported as 12 mm in [9], 19 mm in data set [10], 19 mm in [11] and 19 mm in data set [12].
